The results in this text go back to the supplement of paper PMC11208160.

A short description of this data set: recombinant barcode read abundance after kanamycin selection (control-corrected) (log10(CPM+1)); higher = more efficient recombination; sequences stand for … in AGTGCAGAGAAAATCGGCCAGTTTTCTCTGCCTGCAGTCCGCATGCCGT…AGATTTATGCAGCGGACTGCCTTTCTCCCAAAGTGATAAACCGGACAGTATCATGGACCGGTTTTCCCGGTAATCCGTATTTGCAAGGTTGGTTTCACT; site = the 11-nt target. Put shortly:
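Pooled E. coli screen pairing targets with IS621 bridge RNA target-binding loops. Each oligo (promoter, target, barcode, J23119-driven first 104 bridge RNA bases) was Gibson-cloned into a vector with the remaining 73 bp and T7-inducible recombinase, then co-electroporated with a donor plasmid. Two replicates each were plated on chloramphenicol/ampicillin LB agar (control) or chloramphenicol/ampicillin/kanamycin with 0.1 mM IPTG. Recombination efficiency is recombinant-junction barcode counts as CPM, averaged, control-corrected, reported as log10(CPM+1).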
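Note: IS621 recombinase and bridge RNA in Escherichia coli cells.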

Regarding “CATTTCCCTTGGGTTCTAACCTGTTGCCT (site CATTTCCCTAA)”, the “recombinant barcode read abundance (log10)” value was found to be 0.0164. In the case of “CATTTCCCTTGGGTTCTAACCTGTTGCCT (site CATTTCCCTAG)” it was 0.23; in that of “CCAAATCCTTGGGTTCTAACCTGTTGCAT (site CCAAATCCTAT)”, 0.189. For “CCAAATCCTTGGGTTCTAACCTGTTGCAT (site TGTCTAGCTCC)”, the “recombinant barcode read abundance (log10)” value is 0.697. As for “CCAAGCACTTGGGTTCTAACCTGTTGCCT (site CCAAGCACTAG)”, the “recombinant barcode read abundance (log10)” value amounted to 0.624.

For the sequence “CCAAGCACTTGGGTTCTAACCTGTTGCCT (site CCAAGCCCTAG)”, the “recombinant barcode read abundance (log10)” value came out at 0.138.

In the case of “CCAAGCACTTGGGTTCTAACCTGTTGCCT (site CCAAGCGCTAG)”, the “recombinant barcode read abundance (log10)” value stood at 0.0822. As to “CCAAGCACTTGGGTTCTAACCTGTTGCCT (site CCAAGCTCTAG)”, the “recombinant barcode read abundance (log10)” value stood at 0.172. For the sequence “CCAAGGCCTTGGGTTCTAACCTGTTGCCG (site CCAAGGCCTCG)”, the “recombinant barcode read abundance (log10)” value is 0.0466. Consider “CCAAGGCCTTGGGTTCTAACCTGTTGCCG (site TTCGCATCTAA)”, for which the “recombinant barcode read abundance (log10)” value was determined as 0.208. As to “CCAAGGGCTTGGGTTCTAACCTGTTGCGG (site CCAAGGGCTCA)”, the “recombinant barcode read abundance (log10)” value is 0.628. As to “CCAAGGGCTTGGGTTCTAACCTGTTGCGG (site CCAAGGGCTCC)”, the “recombinant barcode read abundance (log10)” value came to 2.52. As for “CCAAGGGCTTGGGTTCTAACCTGTTGCGG (site CCAAGGGCTCG)”, the “recombinant barcode read abundance (log10)” value was determined as 0.094. For “CCAAGGGCTTGGGTTCTAACCTGTTGCGG (site CCAAGGGCTCT)”, the “recombinant barcode read abundance (log10)” value turned out to be 2.18. In the case of “CCAAGTACTTGGGTTCTAACCTGTTGCTT (site CCAAGTACTAA)”, the “recombinant barcode read abundance (log10)” value was found to be 0.387. Take “CCAAGTACTTGGGTTCTAACCTGTTGCTT (site CCACGAACTAA)”: the “recombinant barcode read abundance (log10)” value was found to be 0.106.

“CCAATGTCTTGGGTTCTAACCTGTTGCGT (site CCAATGTCTAC)”: the “recombinant barcode read abundance (log10)” value turned out to be 1.03. For “CCAATGTCTTGGGTTCTAACCTGTTGCGT (site GTTCGTCCTTG)”, the “recombinant barcode read abundance (log10)” value is 0.047. As for “CCACACACTTGGGTTCTAACCTGTTGCCT (site CAATACACTAG)”, the “recombinant barcode read abundance (log10)” value came out at 0.0103. Take “CCACACACTTGGGTTCTAACCTGTTGCCT (site CCACACACTAG)”: the “recombinant barcode read abundance (log10)” value worked out at 0.345. In the case of “CCACCGACTTGGGTTCTAACCTGTTGCCT (site CCACCGACTAG)”, the “recombinant barcode read abundance (log10)” value came to 0.0699. For “CCACCGACTTGGGTTCTAACCTGTTGCCT (site GCACCAACTAG)”, the “recombinant barcode read abundance (log10)” value was found to be 0.257. As for “CCACCGCCTTGGGTTCTAACCTGTTGCCT (site ACACCGCCTAG)”, the “recombinant barcode read abundance (log10)” value came to 0.0161. On to “CCACCGCCTTGGGTTCTAACCTGTTGCCT (site CCACCGCCTAG)”, for which the “recombinant barcode read abundance (log10)” value stood at 0.139. Take “CCACCGCCTTGGGTTCTAACCTGTTGCCT (site GCACCGCCTAG)”: the “recombinant barcode read abundance (log10)” value amounted to 0.211. As to “CCACCGCCTTGGGTTCTAACCTGTTGCCT (site TCACCGCCTAG)”, the “recombinant barcode read abundance (log10)” value was 0.0912. In the case of “CCACGTTCTTGGGTTCTAACCTGTTGCCT (site CCACGTTCTAG)”, the “recombinant barcode read abundance (log10)” value amounted to 0.181. For the sequence “CCACGTTCTTGGGTTCTAACCTGTTGCCT (site CTACGTTCTAG)”, the “recombinant barcode read abundance (log10)” value amounted to 0.0541. Take “CCACTAGCTTGGGTTCTAACCTGTTGCAG (site AATGGGTCTAA)”: the “recombinant barcode read abundance (log10)” value was 0. In the case of “CCACTAGCTTGGGTTCTAACCTGTTGCAG (site CCACTAGCTCT)” it was 0.85. Regarding “CCACTGCCTTGGGTTCTAACCTGTTGCCT (site CCACTACCTAG)”, the “recombinant barcode read abundance (log10)” value is 0.734. For the sequence “CCACTGCCTTGGGTTCTAACCTGTTGCCT (site CCACTCCCTAG)”, the “recombinant barcode read abundance (log10)” value turned out to be 0.229.
